The source of these data is ChEMBL document CHEMBL4373724, “An overview of recent progress in siderophore-antibiotic conjugates” (2019).

Assay type in all cases: functional
The subject of assay [1] is Mycobacterium tuberculosis. Kind of assay: Antitubercular activity against multi drug resistant Mycobacterium tuberculosis isolate 6.
The subject of assay [2] is Mycobacterium tuberculosis. Kind of assay: Antitubercular activity against extensively drug resistant Mycobacterium tuberculosis isolate 10.
Assay [3] relates to Mycobacterium tuberculosis. Kind of assay: Antitubercular activity against multi drug resistant Mycobacterium tuberculosis isolate 5.
The test system of assay [4] is Mycobacterium tuberculosis. Kind of assay: Antitubercular activity against extensively drug resistant Mycobacterium tuberculosis isolate 11.
For assay [5], the system named is Mycobacterium tuberculosis. In words: Antitubercular activity against multi drug resistant Mycobacterium tuberculosis isolate 3.
The subject of assay [6] is Mycobacterium tuberculosis. In words: Antitubercular activity against multi drug resistant Mycobacterium tuberculosis isolate 1.
For assay [7], the system named is Mycobacterium tuberculosis. In words: Antitubercular activity against extensively drug resistant Mycobacterium tuberculosis isolate 8.
Assay [8] concerns Mycobacterium tuberculosis. In words: Antitubercular activity against extensively drug resistant Mycobacterium tuberculosis isolate 9.
In assay [9] the test system is Mycobacterium tuberculosis. Kind of assay: Antitubercular activity against multi drug resistant Mycobacterium tuberculosis isolate 2.
In assay [10] the test system is Mycobacterium tuberculosis. Kind of assay: Antitubercular activity against multi drug resistant Mycobacterium tuberculosis isolate 7.
In assay [11] the test system is Mycobacterium tuberculosis. Kind of assay: Antitubercular activity against multi drug resistant Mycobacterium tuberculosis isolate 4.

In brackets after ≈: the same amount, converted by molar mass.

A word on the MIC: it is the smallest concentration in the dilution series that meets the test's criterion for growth inhibition. A low value points to inhibition by little substance.

Consider `CCCCCCCCCCCCCCCCC(=O)N(O)CCCC[C@H](NC(=O)[C@@H]1COC(c2ccccc2O)=N1)C(=O)NC[C@H](NC(=O)CCCO[C@H]1O[C@@H]2O[C@@]3(C)CC[C@H]4[C@H](C)CC[C@@H]([C@H]1C)[C@@]24OO3)C(=O)N[C@H]1CCCCN(O)C1=O`, for which the MIC in [1] was 0.625 µg/mL (≈ 0.535 µM); in [2], 0.625 µg/mL (≈ 0.535 µM); in [3] it was 0.156 to 0.312 µg/mL (≈ 0.134 to 0.267 µM); in assay [4] it was 0.31 µg/mL (≈ 0.265 µM); in assay [5] it was 0.625 µg/mL (≈ 0.535 µM); in assay [6], 1.25 µg/mL (≈ 1.07 µM). Further, the MIC in assay [7] came out at 0.31 µg/mL (≈ 0.265 µM); in assay [8], 0.078 µg/mL (≈ 0.0668 µM); in assay [9], 0.625 µg/mL (≈ 0.535 µM); in assay [10] it was 0.312 µg/mL (≈ 0.267 µM); in [11], 0.625 µg/mL (≈ 0.535 µM).
